Source: patent publication US20220378756A1, “ACTIVATING PYRUVATE KINASE R” (FORMA Therapeutics, Inc., priority 2019, published 2022)
“And” between values parts separate entries of the source, which are not always exact repeats. Identical values can stand only once. “Also recorded” adds a separate entry of the source.

Legend:
[1] = test system: ATP and 2,3-DPG levels in blood cells; experiment: 28-day daily dosing in non-human primates; format: in vivo
Procedure: 2,3-DPG levels in blood cells from non-human primates receiving daily doses of Compound 1 at 100, 350 and 550 mg/kg for 28 days were measured. Dose dependent decreases in 2,3-DPG levels were observed, with up to a 40% decrease from pretreatment levels, as illustrated in FIG. 22.

[2] = Phase 1, SCD patients single 700 mg dose: safety; format: in vivo, human
Procedure: In this study, SAD/MAD cohorts are randomized (3 to 1) to receive Compound 1 or placebo (P). Compound 1 was evaluated first in 4 healthy SAD cohorts and 4 healthy MAD (14-day dosing period) cohorts. Based on the safety, and PK/PD profile from HS, Compound 1 is then evaluated in 1 SCD SAD cohort and 2 SCD MAD cohorts. Specifically, based on the safety and pharmacokinetic/pharmacodynamics (PK/PD) profile in healthy volunteer studies, Compound 1 is evaluated in patients (pts) with SCD, first in a single dose (SD or SAD) cohort and then in multiple-dose (MD or MAD) cohorts (14-day and 12-week). Safety assessments include AEs, vital signs, ECGs and laboratory parameters. PK/PD blood sampling was performed on Day 1 (SAD/MAD) and Day 14 (MAD) and up to 72 h after the last dose and at the end-of-study visit. PD parameters included 2,3-DPG, ATP, and p50 in all cohorts with additional PD studies (including oxygen scan) performed only in the SCD cohorts. PD parameters included 2,3-DPG, ATP, p50, RBC deformability with controlled deoxygenation and reoxygenation (Lorrca® oxygen scan) and varying osmolality (Lorrca® osmoscan)). To maintain study blind, pt identifiers were removed when needed.
In the SD cohort, 7 pts (2 males, 5 females, all HbSS) received 700 mg Compound 1 (n=5) or placebo (n=2).
All SCD patients who received a single 700 mg dose of Compound 1 or placebo were monitored for adverse events for 7 days. The incidence of treatment emergent adverse events (TEAEs) in SCD patients receiving Compound 1 (700 mg) or placebo are reported in Table 23. Six TEAEs were reported in 4 patients; all TEAEs were grade 1 and transient. Specifically, six TEAEs were reported in 4 of 7 ([…]) patients, including 3 TEAEs (arthralgia, headache, palpitations) in 2 of 5 ([…]) pts receiving Compound 1 and 3 TEAEs (back pain, myalgia, pruritis) in 2 of 2 (100%) pts receiving placebo; all TEAEs were grade 1 and transient. […] One possibly related TEAE (palpitations) occurred about 8 hours post dose. No other symptoms were observed, and the palpitations resolved in <1 minute. […] The single 700 mg dose of Compound 1 was considered tolerable, and the first multiple dose SCD cohort (“Dose 1” in FIG. 28) was initiated.

[3] = test system: H295R adreno-cortical carcinoma cell line; experiment: Cell viability (MTT Kit); format: cell-based
Procedure: To assess potential effects on steroidogenesis, Compound 1 was screened for steroid modulation in vitro using the H295R adreno-cortical carcinoma cell line (at 200 to 0.0002 μM) and in an assay to monitor cell viability (MTT Kit). Compound 1 indicated steroid modulation potential (% over vehicle) only at 200 µM, the top concentration tested, with 100% cellular viability at concentrations ≤20 μM (90% viability at 200 μM).

[4] = molecular target: T1, PKR in mouse red blood cells (Mus musculus, UniProt P53657); experiment: PKR activation in mouse red blood cells; format: cell-based; settings: mouse RBCs
T1 construct: endogenous in cells; host or cells: mouse RBCs isolated fresh from whole blood
T1 sequence (P53657 whole entry): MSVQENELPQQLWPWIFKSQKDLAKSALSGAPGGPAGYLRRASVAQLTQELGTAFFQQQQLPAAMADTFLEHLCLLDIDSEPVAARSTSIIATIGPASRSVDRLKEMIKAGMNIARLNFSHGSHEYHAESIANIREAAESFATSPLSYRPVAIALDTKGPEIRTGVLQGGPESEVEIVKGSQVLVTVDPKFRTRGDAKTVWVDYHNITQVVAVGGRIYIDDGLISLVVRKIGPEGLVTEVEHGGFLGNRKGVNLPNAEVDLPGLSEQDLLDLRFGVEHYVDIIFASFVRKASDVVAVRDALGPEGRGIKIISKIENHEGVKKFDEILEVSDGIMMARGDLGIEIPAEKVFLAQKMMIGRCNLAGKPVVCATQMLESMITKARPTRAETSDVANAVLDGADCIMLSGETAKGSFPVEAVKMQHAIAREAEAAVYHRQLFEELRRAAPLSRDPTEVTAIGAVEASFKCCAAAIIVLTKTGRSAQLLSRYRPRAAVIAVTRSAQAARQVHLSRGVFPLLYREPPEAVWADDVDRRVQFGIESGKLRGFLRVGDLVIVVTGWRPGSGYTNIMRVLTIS
Procedure: (§1) The activation of wt-PKR by Compound 1 in mature human erythrocytes ex vivo was evaluated in purified RBCs purchased from Research Blood Components. Cells treated with Compound 1 for 3 hr in glucose-containing media were washed, lysed, and assayed using a Biovision Pyruvate Kinase Assay (K709-100). The assay was repeated multiple times to account for donor-to-donor variability and the relatively narrow dynamic range.
Mouse RBCs were isolated fresh from whole blood using a Ficoll gradient and assayed with methods similar to those used in the human RBCs assays.

[5] = test system: estradiol and testosterone levels; experiment: Circulating estradiol and testosterone in healthy subjects, 14 days; format: in vivo, human; settings: healthy subjects, 100, 200, 300 mg BID and 400 mg QD for 14 days; days 8, 14, 17
Procedure: Effects on circulating levels of estradiol and testosterone in male and female healthy subjects receiving Compound 1 or placebo for a treatment period of 14 days were evaluated. Compound 1 was administered twice daily (BID) at dose levels of 100 mg, 200 mg, and 300 mg, and once daily (QD) at a dose level of 400 mg. Each dosing cohort was comprised of 9 subjects treated with Compound 1 and 3 subjects treated with placebo. Testosterone and estradiol levels were assessed prior to dosing (baseline), and then on days 8, 14 and 17.

Human SCD cells = experiment: Ex vivo sickling under severe hypoxic conditions (2% oxygen); format: cell-based; settings: 10 μM
Procedure: Red blood cells from SCD patients were used to evaluate the effects of Compound 1 on Hgb affinity for oxygen (i.e., oxygen affinity) and sickling under hypoxic conditions. Cells were incubated at 37° C. for 1, 2, and 3 hr with HEPES buffered saline (HBS) (untreated), HBS+dimethyl sulfoxide (DMSO) (vehicle), or 10 μM Compound 1. To assess oxygen dissociation, Hgb oxygen equilibrium curves were collected during deoxygenation.
Compound 1 (10 μM) reduced cell sickling under severe hypoxic conditions of 2% oxygen (PO2 of <20 mmHg) for up to 20 min (Table 9).

[6] = Preclinical safety and in vitro panels
[7] = molecular target: T2, wt-PKR in mature human erythrocytes (Homo sapiens, UniProt P30613); experiment: Cell assay: PKR activation in purified human RBCs (Biovision Pyruvate Kinase Assay); format: cell-based; settings: 3 hr treatment
T2 construct: host or cells: purified human RBCs from donors
T2 sequence (P30613 whole entry): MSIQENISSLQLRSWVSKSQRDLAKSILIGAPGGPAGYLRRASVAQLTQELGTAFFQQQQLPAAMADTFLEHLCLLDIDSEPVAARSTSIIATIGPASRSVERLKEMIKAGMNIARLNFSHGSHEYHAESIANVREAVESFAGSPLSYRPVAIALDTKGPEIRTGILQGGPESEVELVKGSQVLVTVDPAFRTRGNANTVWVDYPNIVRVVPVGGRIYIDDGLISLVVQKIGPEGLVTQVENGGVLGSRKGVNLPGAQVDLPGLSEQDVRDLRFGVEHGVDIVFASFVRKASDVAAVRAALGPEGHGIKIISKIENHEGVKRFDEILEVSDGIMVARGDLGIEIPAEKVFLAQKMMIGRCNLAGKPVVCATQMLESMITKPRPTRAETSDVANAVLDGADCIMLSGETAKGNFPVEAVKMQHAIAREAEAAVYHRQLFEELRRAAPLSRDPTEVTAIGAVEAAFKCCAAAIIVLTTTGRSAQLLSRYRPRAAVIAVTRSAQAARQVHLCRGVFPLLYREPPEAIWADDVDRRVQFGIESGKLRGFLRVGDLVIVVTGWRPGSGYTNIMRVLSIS
Procedure: as §1

## O=C([C@H](CO)c1ccccc1)N1CC2=C(C1)CN(S(=O)(=O)c1cnc3c(c1)OCCO3)C2 (single isomer, unassigned) [Compound 1]
[1]; 550 mg/kg daily for 28 days (highest dose)
  increase in ATP levels compared to pre-treatment: 90%
[1]; daily doses 100, 350 and 550 mg/kg for 28 days
  decrease in 2,3-DPG from pretreatment levels: ≤ 40%
[2]; SCD single dose cohort
  serious adverse events / TEAEs leading to withdrawal: No serious adverse events (SAEs) or TEAEs leading to pt withdrawal
[2]; SCD, 700 mg single dose, N = 5
  Any TEAE, n (%): 2 (40) n (%)
  TEAE related to study drug, n (%): 1 (20) n (%)
[2]; SCD, 700 mg single dose, 3 TEAEs (arthralgia, headache, palpitations), grade 1
  pts with TEAEs (2 of 5): 40%
[3]; 200 μM
  cellular viability: 90%
[3]; concentrations ≤20 μM
  cellular viability: 100%
[4]; individual replicates 1-2
  Max-Min (%): <50% and <100%
[4]; mean
  Max-Min (%), mean: <100%
[5]
  change from baseline for testosterone and estradiol levels: No effect on testosterone or estradiol levels; also recorded: no statistically significant changes
Human SCD cells; 15 min in hypoxic conditions (maximum)
  % Protection: 16%
Human SCD cells; 20 min in hypoxic conditions, DMSO 71
  Net % of Sickled Cells: 60%
[6]
  preclinical evidence of arrhythmia risk, mutagenicity, nonspecific binding: has not demonstrated any preclinical evidence of arrhythmia risk, mutagenicity, or nonspecific binding activity
[7]; individual replicates 1-4
  Max-Min (%): <125% and <150% and <100% and <50%
[7]; mean of replicates
  Max-Min (%), mean maximum activation increase: <100%
